Assay results as given in ChEMBL document CHEMBL1201862, “PubChem BioAssay data set” (2004).
Calls of active or inactive are those of the source.

Legend:
[1] = general mammalian cell viability loss – activator set, cherry-pick, cytotoxicity control for miR-122 modulator project, dose response (AID 720690); type: functional, cell-based;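 further: HEK293T human cells scored for general mammalian cytotoxicity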
[2] = activation of miR-122 Renilla sensor silencing – cell-based, Huh7 psiCHECK-miR122, Renilla luciferase, cherry-picked, dose response (AID 651956); type: functional;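 further: huh7 hepatoma cells stably carrying a psiCHECK-2 miR-122 sensor plasmid; renilla luciferase signal reporting endogenous miR-122 activity after 48 h compound exposure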
[3] = target: Paired box protein Pax-8 (Homo sapiens, UniProt Q06710); assay: PAX8 transcriptional activity inhibition in RMG-I – RMG-I cells, luciferase, cherry-pick, dose response (AID 687027); type: functional, cell-based;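 further: luciferase reporter driven by Pax8 target thyroperoxidase promoter measured by SteadyGlo luminescence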
[4] = general cell-killing toxicity readout – plate reader, dry powder samples, cytotoxicity control for PAX8 inhibitor project, dose response (AID 743021); type: functional, cell-based
[5] = Luminescence Cell-Based Dose Response HTS to Identify Activators of Luciferase Translation or Activity in H4 […] Cells. [Related pubchem assays: 1829 (Project Summary), 1814 (Primary HTS)]; type: functional
[6] = target: Eukaryotic translation initiation factor 4E (Mus musculus, UniProt P63073); assay: blockers of eIF4G binding by eIF4E – biochemical, TR-FRET, dose response (AID 855); type: functional;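 further: potency for disrupting eIF4E binding to eIF4GI seen as loss of FRET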
[7] = test system: H4; assay: Luminescence Cell-Based Dose Response HTS to Identify Activators of 5'UTR Stem-Loop Driven Prion Protein mRNA Translation in H4 Neuroglioblastoma Cells. [Related pubchem assays: 1829 (Project Summary), 1814 (Primary HTS)]; type: functional; settings: Homo sapiens
[8] = target: T1, High affinity choline transporter 1 (Homo sapiens, UniProt Q9GZV3); assay: human choline transporter blockers, potency – cell-based, 5-point CRC, membrane potential dye, dose response (AID 504840); type: functional
T1 sequence (Q9GZV3 whole entry): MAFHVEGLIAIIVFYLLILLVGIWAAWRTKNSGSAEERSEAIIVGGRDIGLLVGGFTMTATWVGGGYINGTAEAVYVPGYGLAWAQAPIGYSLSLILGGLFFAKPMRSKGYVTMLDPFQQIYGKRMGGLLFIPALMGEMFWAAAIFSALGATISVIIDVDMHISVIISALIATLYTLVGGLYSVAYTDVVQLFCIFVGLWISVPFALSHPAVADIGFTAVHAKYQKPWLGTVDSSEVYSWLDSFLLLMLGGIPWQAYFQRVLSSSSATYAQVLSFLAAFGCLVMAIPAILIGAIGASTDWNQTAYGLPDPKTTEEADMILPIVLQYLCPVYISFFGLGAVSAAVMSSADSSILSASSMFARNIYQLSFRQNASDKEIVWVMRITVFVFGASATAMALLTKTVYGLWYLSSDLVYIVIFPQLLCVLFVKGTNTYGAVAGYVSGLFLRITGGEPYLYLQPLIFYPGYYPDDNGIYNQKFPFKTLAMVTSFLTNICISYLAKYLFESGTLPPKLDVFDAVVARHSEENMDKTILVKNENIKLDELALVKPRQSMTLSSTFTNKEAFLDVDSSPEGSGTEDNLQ

[9] = Luminescence Cell-Based Dose Confirmation HTS to Identify Activators of 5'UTR Stem-Loop Driven Alpha-Synuclein mRNA Translation in H4 Neuroglioblastoma Cells. [Related pubchem assays: 1829 (Project Summary), 1814 (Primary HTS)]; type: functional
[10] = target: T2, Estrogen receptor (Homo sapiens, UniProt P03372);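 further: potency for inhibiting coactivator peptide recruitment to the receptor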
T2 sequence (P03372 whole entry): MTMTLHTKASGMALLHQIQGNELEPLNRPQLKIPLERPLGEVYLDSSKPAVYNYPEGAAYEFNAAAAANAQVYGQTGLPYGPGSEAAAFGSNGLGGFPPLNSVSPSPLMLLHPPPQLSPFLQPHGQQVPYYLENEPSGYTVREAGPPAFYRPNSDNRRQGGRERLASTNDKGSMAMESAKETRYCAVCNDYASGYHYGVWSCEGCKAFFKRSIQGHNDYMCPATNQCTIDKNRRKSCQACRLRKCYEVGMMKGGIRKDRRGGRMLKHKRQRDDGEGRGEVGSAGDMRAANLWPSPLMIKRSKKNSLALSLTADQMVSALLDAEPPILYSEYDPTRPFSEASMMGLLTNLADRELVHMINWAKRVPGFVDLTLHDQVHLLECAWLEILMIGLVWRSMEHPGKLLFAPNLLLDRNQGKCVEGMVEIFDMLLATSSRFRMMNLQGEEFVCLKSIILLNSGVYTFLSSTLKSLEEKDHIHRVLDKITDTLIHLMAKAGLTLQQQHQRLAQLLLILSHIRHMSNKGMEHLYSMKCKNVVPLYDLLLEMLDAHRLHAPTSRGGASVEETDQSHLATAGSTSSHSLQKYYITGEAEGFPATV

[11] = target: T3, Estrogen receptor beta (Homo sapiens, UniProt Q92731); assay: blockers of SRC-3 recruitment to ERβ – biochemical, ELISA, streptavidin-HRP readout, orthogonal assay, confirmation (AID 1060)
[12] = Luminescence Cell-Based Dose Response HTS to Identify Inhibitors of 5'UTR Stem-Loop Driven Prion Protein mRNA Translation in H4 Neuroglioblastoma Cells. [Related pubchem assays: 1827 (Project Summary), 1813 (Primary HTS)]; type: functional
[13] = target: T3, Estrogen receptor beta
[14] = alpha-synuclein stem-loop luciferase translation blockers – H4 neuroglioma cells, luminescence, confirmation (AID 1988); type: functional, cell-based
[15] = luciferase reporter signal suppression in cells – H4 neuroglioma cells, luminescence, dose response (AID 1990); type: functional, cell-based
[16] = target: G-protein coupled receptor 55 (Homo sapiens, UniProt Q9Y2T6); assay: inhibition of LPI-stimulated GPR55 beta-arrestin translocation – imaging, U2OS, beta-arrestin-GFP, LPI agonist, primary screen (AID 2013); type: functional;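 further: antagonist potency measured as reduced agonist-driven arrestin aggregation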
[17] = toxicity toward HepG2 liver cells – cell-based, plate reader, cherry-pick, antagonist series, cytotoxicity control, dose response (AID 743416); type: functional
[18] = A549 cell cytotoxicity, dose response, cytotoxicity control, plate reader, cherry-pick, antagonist series (AID 743412); type: functional, cell-based
[19] = target: Mitogen-activated protein kinase 10 (Homo sapiens, UniProt P53779); assay: Dose response biochemical screening assay for inhibitors of c-Jun N-Terminal Kinase 3 (JNK3). [Related pubchem assays: 746 ]
[20] = HEK-293T cell viability reduction – luminescence, B-cell screen hits, cytotoxicity control for BCR NF-kB inhibitor project, dose response (AID 489021); type: functional, cell-based;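 further: HEK-293T cells carrying an NF-kB luciferase reporter; cells exposed to compound for about 14 hours before viability readout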
[21] = target: SWI/SNF-related matrix-associated actin-dependent regulator of chromatin subfamily A member 2 (Homo sapiens, UniProt P51531); assay: Luminescence-based cell-based high throughput dose response assay to identify activators of the function of SWI/SNF related, matrix associated, actin dependent regulator of chromatin, subfamily a, member 2 (SMARCA2, BRM).; type: functional
[22] = Counterscreen for activators of the function of SWI/SNF related, matrix associated, actin dependent regulator of chromatin, subfamily a, member 2 (SMARCA2, BRM): Luminescence-based cell-based high throughput dose response assay to identify non-selective compounds using the VP16 reporter assay.; type: functional
[23] = target: Nonstructural protein 1 (Influenza A virus, UniProt Q194T2); type: functional, Influenza A virus (A/California/07/2009(H1N1))
Sequence of Nonstructural protein 1 (Q194T2 whole entry): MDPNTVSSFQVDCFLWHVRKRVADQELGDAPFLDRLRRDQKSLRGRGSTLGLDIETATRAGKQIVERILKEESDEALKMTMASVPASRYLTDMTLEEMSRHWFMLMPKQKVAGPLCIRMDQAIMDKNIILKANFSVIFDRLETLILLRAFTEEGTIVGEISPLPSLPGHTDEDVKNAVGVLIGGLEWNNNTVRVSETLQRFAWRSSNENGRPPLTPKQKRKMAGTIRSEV

T3 sequence (Q92731 whole entry): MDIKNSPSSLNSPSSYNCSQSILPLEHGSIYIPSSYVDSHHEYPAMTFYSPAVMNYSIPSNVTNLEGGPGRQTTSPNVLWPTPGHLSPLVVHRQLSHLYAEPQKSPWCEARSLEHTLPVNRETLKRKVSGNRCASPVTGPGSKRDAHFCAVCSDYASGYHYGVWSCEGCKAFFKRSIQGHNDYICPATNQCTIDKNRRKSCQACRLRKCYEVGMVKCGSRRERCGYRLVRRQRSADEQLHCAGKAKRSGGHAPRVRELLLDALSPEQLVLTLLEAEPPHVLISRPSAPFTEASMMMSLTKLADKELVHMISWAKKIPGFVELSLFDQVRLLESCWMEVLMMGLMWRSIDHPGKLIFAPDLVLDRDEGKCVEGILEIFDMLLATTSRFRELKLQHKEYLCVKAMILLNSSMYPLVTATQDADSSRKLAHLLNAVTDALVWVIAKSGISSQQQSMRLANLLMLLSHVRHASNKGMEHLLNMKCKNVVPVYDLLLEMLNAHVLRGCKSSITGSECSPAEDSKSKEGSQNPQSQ
Sequence of Mitogen-activated protein kinase 10 (P53779 whole entry): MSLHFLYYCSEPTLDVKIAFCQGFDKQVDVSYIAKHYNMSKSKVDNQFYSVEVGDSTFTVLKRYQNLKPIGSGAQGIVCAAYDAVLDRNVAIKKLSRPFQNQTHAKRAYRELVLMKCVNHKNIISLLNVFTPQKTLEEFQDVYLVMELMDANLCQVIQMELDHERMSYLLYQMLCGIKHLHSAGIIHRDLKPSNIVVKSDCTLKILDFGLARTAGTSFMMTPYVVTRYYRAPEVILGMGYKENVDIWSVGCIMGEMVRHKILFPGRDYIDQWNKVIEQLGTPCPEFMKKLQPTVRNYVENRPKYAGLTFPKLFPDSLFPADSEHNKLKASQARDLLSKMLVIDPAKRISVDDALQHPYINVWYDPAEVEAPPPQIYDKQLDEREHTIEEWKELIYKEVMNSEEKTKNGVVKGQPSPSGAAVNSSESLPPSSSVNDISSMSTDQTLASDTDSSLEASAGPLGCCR
Sequence of Eukaryotic translation initiation factor 4E (P63073 whole entry): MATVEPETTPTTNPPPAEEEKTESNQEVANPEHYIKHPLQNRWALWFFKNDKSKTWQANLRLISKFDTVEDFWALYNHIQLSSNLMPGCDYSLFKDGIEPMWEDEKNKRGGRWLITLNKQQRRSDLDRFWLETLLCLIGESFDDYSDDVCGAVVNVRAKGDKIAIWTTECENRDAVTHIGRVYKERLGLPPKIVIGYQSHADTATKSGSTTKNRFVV
Sequence of SWI/SNF-related matrix-associated actin-dependent regulator of chromatin subfamily A member 2 (P51531 whole entry): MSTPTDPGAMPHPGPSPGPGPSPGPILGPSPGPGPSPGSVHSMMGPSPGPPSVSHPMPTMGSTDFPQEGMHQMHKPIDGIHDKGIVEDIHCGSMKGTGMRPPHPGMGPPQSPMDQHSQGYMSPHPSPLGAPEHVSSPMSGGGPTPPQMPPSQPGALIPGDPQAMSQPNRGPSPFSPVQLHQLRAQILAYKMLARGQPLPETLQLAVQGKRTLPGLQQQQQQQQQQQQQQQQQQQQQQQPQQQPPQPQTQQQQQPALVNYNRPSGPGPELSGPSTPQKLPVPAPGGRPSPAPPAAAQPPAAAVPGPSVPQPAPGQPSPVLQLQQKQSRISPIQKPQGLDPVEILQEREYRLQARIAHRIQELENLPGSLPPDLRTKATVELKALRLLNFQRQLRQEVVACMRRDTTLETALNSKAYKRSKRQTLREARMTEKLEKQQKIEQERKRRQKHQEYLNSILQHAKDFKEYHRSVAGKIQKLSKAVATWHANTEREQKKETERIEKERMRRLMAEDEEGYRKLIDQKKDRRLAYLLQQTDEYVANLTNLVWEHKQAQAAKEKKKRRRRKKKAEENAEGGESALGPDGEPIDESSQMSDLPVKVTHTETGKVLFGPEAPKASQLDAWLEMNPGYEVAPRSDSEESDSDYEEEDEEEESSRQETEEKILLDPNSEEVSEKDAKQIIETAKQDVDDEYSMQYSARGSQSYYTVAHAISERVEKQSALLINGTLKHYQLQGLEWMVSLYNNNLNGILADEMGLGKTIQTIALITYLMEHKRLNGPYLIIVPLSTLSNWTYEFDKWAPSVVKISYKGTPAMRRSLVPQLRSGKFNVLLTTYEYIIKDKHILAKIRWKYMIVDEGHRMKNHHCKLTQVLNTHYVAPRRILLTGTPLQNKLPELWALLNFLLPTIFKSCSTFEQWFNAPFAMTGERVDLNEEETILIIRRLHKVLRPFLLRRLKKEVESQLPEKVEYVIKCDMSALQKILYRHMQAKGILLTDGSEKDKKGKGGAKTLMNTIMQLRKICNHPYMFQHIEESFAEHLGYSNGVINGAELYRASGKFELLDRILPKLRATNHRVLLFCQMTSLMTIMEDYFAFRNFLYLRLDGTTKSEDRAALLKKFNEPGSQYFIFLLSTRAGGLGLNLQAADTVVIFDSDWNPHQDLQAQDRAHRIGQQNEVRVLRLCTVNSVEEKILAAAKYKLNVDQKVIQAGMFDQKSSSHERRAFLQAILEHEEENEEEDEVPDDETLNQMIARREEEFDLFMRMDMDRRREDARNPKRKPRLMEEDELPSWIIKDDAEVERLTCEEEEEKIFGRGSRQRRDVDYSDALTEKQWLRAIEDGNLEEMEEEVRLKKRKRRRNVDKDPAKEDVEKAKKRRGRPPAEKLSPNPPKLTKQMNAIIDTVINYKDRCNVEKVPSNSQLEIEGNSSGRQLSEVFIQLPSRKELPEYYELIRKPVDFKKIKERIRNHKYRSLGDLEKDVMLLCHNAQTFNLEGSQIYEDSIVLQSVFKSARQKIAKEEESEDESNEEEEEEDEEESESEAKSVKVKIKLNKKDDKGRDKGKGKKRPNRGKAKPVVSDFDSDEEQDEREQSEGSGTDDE
Sequence of Paired box protein Pax-8 (Q06710 whole entry): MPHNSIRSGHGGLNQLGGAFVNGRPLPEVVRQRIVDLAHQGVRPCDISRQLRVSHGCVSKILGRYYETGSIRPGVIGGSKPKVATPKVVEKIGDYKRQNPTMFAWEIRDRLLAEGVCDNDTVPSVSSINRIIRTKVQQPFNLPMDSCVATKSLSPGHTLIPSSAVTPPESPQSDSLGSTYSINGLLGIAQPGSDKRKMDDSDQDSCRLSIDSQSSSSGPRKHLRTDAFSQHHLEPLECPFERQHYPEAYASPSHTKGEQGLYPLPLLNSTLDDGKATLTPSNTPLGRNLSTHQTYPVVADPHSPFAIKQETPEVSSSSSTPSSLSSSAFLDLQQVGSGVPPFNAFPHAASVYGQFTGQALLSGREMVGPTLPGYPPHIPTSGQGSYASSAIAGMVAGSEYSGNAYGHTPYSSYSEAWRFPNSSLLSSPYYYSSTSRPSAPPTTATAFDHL
Sequence of G-protein coupled receptor 55 (Q9Y2T6 whole entry): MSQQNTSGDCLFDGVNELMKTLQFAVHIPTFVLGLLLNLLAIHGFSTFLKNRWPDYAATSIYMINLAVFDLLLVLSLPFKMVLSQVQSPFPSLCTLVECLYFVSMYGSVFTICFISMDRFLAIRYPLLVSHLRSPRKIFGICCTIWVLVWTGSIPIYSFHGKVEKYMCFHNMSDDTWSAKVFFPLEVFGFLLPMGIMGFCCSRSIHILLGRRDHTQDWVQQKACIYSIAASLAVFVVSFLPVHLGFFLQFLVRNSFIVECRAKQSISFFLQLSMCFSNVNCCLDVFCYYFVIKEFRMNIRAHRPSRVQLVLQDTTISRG

CCC(=O)N(C)C[C@H]1Oc2cc(C#CC3CCCCC3)ccc2S(=O)(=O)N([C@@H](C)CO)C[C@H]1C
AC50 [1]: 27.7 µM (active)
AC50 [2]: 7.88 µM (active)

Cc1ccc(Cl)cc1N1CCN(C(=O)c2noc(C)c2[N+](=O)[O-])CC1
AC50 [3]: 6.41 µM (active)
AC50 [4]: 43.2 µM (active)

O=C(OCC(=O)c1c[nH]c2ccccc12)c1cccc(O)c1
EC50 [5]: 12.3 µM (active)
IC50 [6]: > 64 µM (inactive)
EC50 [7]: 8.02 µM (active)
IC50 [8]: 15.8 µM (active)
EC50 [9]: 5.16 µM (active)

CC(=O)c1c(COC(=O)c2ccco2)nc2ccccc2[n+]1[O-]
IC50 [10]: 29.2 µM (active)
IC50 [11]: < 77 µM (not active)
EC50 [12]: > 120 µM (not active)
IC50 [13]: 10.8 µM (active)
EC50 [14]: > 120 µM (not active)
EC50 [15]: > 120 µM (not active)

CCOC(=O)c1cnc2c(c(C)nn2C)c1Oc1ccc(Cl)cc1
IC50 [16]: 3.54 µM (active)

Cc1ccc(S(=O)(=O)Nc2ccc3c(c2)C(=O)N([C@H](C)CO)C[C@@H](C)[C@H](CN(C)S(=O)(=O)c2cccs2)OCCCC[C@@H](C)O3)cc1
AC50 [17]: > 52 µM (inactive)
AC50 [18]: 32.1 µM (active)

Cn1c(C(C)(O)C(O)c2ccccc2)nc2ccccc21 (stereo not drawn)
IC50 [6]: > 64 µM (inactive)

c1ccc2[nH]c3c4ccccc4nc-3nc2c1
IC50 [19]: 13.9 µM (not active)

CCOc1ccc(NC(=O)CCCc2cc(-c3ccc(OCC)cc3)on2)cc1
IC50 [20]: > 80 µM (inactive)

CCn1nnc(NC(=O)CSc2ccc(Cl)cc2)n1
IC50 [10]: 9.27 µM (active)
IC50 [11]: > 109 µM (not active)
IC50 [13]: 4.65 µM (active)

Cc1nnc(SCc2nc3ccccc3s2)n1N
EC50 [21]: > 91.1 µM (inactive)
EC50 [22]: > 91.1 µM (inactive)

CCN(C(C)=O)c1cnc(C=NNC(N)=S)c2ccccc12
IC50 [23]: 6.69 µM (active)

O=C1NC2=C(C(=O)c3ccccc32)C(c2ccccc2)N1 (stereo not drawn)
IC50 [19]: 38.3 µM (not active)
